Assays:
Brucella abortus CcrM = Brucella abortus CcrM (Brucella abortus, UniProt Q2YMK2); assay type: biochemical
[1] = test system: Caulobacter crescentus (CB15N); test: Caulobacter crescentus cell growth assay; assay type: cell-based; conditions: PYE media with 200 µg/mL ampicillin, 30°C, growth monitored at 630 nm up to 22 hours
[2] = test system: Bacillus subtilis (ATCC #33234); test: Bacillus subtilis cell growth assay; assay type: cell-based; conditions: LB media without antibiotics, 37°C, growth monitored up to 7.5 hours

Brucella abortus CcrM, sequence (Q2YMK2 whole entry, looked up): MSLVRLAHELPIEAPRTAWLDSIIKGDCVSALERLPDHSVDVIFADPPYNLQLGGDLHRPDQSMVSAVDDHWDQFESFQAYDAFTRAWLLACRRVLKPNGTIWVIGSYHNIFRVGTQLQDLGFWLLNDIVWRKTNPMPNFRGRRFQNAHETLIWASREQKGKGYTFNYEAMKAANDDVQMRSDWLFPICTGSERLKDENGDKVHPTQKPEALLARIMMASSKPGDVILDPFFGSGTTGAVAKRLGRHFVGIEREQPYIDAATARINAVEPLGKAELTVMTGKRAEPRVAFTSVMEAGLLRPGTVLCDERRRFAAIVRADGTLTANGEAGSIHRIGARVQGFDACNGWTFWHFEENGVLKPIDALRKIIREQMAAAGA

Row | Compound | % reaction Brucella abortus CcrM Activity (Brucella abortus CcrM) | IC50 [1] | IC50 [2]
1 | NCCOB(c1ccc(F)cc1)c1ccc(F)cc1 [Compound 19ii, Di-(4-fluorophenyl)borinic acid ethanolamine ester] | 8% | – | –
2 | Diphenylborinic acid 2-amino-1-phenylpropanol [Compound 17i] | 114% | > 100 µM | > 100 µM
3 | Clc1ccc(B(Oc2cccc3cccnc23)c2ccc(Cl)cc2)cc1 [Compound 11iii, Di-(4-chlorophenyl)borinic acid 8-hydroxyquinoline ester] | 61% | – | –
4 | Fc1ccc(B(Oc2cccc3cccnc23)c2ccc(F)cc2)cc1 [Compound 11ii, Di-(4-fluorophenyl)borinic acid 8-hydroxyquinoline ester] | 61% | – | –
5 | COc1ccc(B(Oc2cccc3ccc(C)nc23)c2ccc(OC)cc2)cc1 [Compound 12vii, Di-(4-methoxyphenyl)borinic acid 8-hydroxyquinaldine ester] | 56% | – | –
6 | O=[N+]([O-])c1ccc(OB(c2ccc3c(c2)OCO3)c2ccc3c(c2)OCO3)c2ncccc12 [Compound 14vi, Di-(3,4-methylenedioxyphenyl)borinic acid 8-hydroxy-5-nitroquinoline ester] | 21% | – | –
7 | Cc1ccc2cccc(OB(c3ccc(Cl)cc3)c3ccc(Cl)cc3)c2n1 [Compound 12iii, Di-(p-chlorophenyl)borinic acid 8-hydroxyquinaldine ester] | 40% | – | –
8 | c1csc(B(Oc2cccc3cccnc23)c2cccs2)c1 [Compound 11viii, Di-(2-thienyl)borinic acid 8-hydroxyquinoline ester] | 74% | – | –
9 | Clc1ccc(B(Oc2ccc(Cl)c3cccnc23)c2ccc(Cl)cc2)cc1 [Compound 13iii, Di-(p-chlorophenyl)borinic acid 5-chloro-8-hydroxyquinaline ester] | 81% | – | –
10 | c1ccc(B(OC[C@@H]2CCCN2)c2ccccc2)cc1 [Compound 18i, Diphenylborinic acid (S)-(+)-pyrrolidine-2-methanol] | 81% | > 100 µM | > 100 µM
11 | Cc1ccc2cccc(OB(c3ccc(F)cc3)c3ccc(F)cc3)c2n1 [Compound 12ii, Di-(p-fluorophenyl)borinic acid 8-hydroxyquinaldine ester] | 17% | – | –
12 | Fc1ccc(B(Oc2ccc(Cl)c3cccnc23)c2ccc(F)cc2)cc1 [Compound 13ii, Di-(p-fluorophenyl)borinic acid 5-chloro-8-hydroxyquinaline ester] | 55% | – | –
13 | c1cnc2c(OB(c3ccc4c(c3)OCO4)c3ccc4c(c3)OCO4)cccc2c1 [Compound 11vi, Di-(3,4-methylenedioxyphenyl)borinic acid 8-hydroxyquinoline ester] | 42% | – | –
14 | c1ccc(B(OCc2ccccn2)c2ccccc2)cc1 [Compound 16i, Diphenylborinic acid pyridine-2-methanol] | 93% | – | –

— EP1339725B1, “DNA METHYL TRANSFERASE INHIBITORS” (priority 2000, dated 2002)
